Article doi:10.1101/2022.06.13.495986v1 (biorxiv, 2022)

Biological target: T1, HepII (Heptosyltransferase II) (Escherichia coli, UniProt P37692)
T1 sequence (P37692 1-348): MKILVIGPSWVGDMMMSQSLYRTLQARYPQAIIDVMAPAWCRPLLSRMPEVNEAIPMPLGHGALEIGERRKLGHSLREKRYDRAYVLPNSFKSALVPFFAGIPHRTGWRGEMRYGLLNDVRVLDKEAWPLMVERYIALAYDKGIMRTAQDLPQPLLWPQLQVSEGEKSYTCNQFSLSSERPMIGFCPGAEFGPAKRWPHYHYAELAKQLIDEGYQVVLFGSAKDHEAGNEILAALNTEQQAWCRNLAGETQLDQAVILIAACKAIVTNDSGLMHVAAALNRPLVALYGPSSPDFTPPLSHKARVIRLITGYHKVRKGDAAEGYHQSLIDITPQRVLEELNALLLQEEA
Assay: tryptophan fluorescence quenching
Format: binding

- Kd: 660 ± 460 nM
SMILES: Nc1ncnc2c1ncn2[C@@H]1O[C@H](COP(=O)(O)OP(=O)(O)O[C@@H]2O[C@H]([C@@H](O)CO)[C@@H](O)[C@H](O)[C@@H]2O)[C@@H](O)[C@H]1O [ADP-Hep]
